Data from US20250082602A1, “OPHTHALMIC COMPOSITION CONTAINING RECOFLAVONE FOR THE TREATMENT OF DRY EYE DISEASE” (GL PHARMTECH CORP., priority 2021, published 2025).
Where two headings read alike, the source gives them in different places.

Assays:
[1] = test system: human keratoconjunctival epithelial cells; conditions: cited from earlier work
[2] = cited from earlier work
Solubility in water = format: physicochemical; conditions: low solubility at low pH, increases with pH
rabbit eyes = test: Drug distribution in eye tissues after eye drop administration to rabbit eyes; format: in vivo; conditions: 3% eye drop administered to rabbit eyes (data not shown)
Description: It has a property with low solubility at low pH. As the pH increases, it is ionized and its solubility increases.

[3] = Cell permeability of dissolved recoflavone; format: in vitro ADME; conditions: dissolved state, high degree of ionization

## COc1ccc(-c2cc(=O)c3c(OC)cc(OCC(=O)O)cc3o2)cc1OC [recoflavone, 2-((2-(3,4-dimethoxyphenyl)-5-methoxy-4-oxo-4H-chromen-7-yl)oxy) acetic acid]
[1]; 100 μM solution of the active ingredient
  Thickness of the mucin layer: significantly increased
[1]; Western blot
  Mucin proteins by Western blot analysis: MUC5AC only had a tendency to increase
[1]; real-time PCR
  Mucin expression MUC1, MUC4, MUC16 and MUC5AC by real-time PCR: tendency to increase significantly for four hours and then decreased rapidly
[2]; form of a hydrate
  Hygroscopicity: stable without hygroscopicity
[2]; form of an anhydride
  Hygroscopicity: has hygroscopicity
Solubility in water
  Solubility in water: practically insoluble in water
Rabbit eyes
  Drug distribution in each tissue of eye with time: rarely distributed in the tissues located inside the eye and mainly distributed in the surrounding tissues outside of the eye
[3]
  Cell permeability: poor cell permeability
